Results from ChEMBL document CHEMBL3352786, “Structure-based design and optimization of potent inhibitors of the adenoviral protease” (Bioorg Med Chem Lett, 2015).
Values after ≈ are worked out from the molar mass of the structure shown.

Columns and labels:
[1] = test system: adenain (human adenovirus serotype 8); assay: Inhibition of human adenovirus serotype 8 adenain protease expressed in Escherichia coli […] (DE3) using Ac-WLRGG*ARC(PT14)-NH2 as substrate by FLT assay
[2] = test system: adenain (human adenovirus serotype 5); assay: Inhibition of human adenovirus serotype 5 adenain protease expressed in Escherichia coli […] (DE3) using Ac-WLRGG*ARC(PT14)-NH2 as substrate by FLT assay
[3] = Permeability of the compound by PAMPA; format: ADME
[4] = test system: Human adenovirus 5; assay: Antiviral activity against human adenovirus 5 infected in HEK293 cells assessed as reduction in viral induced cytopathogenicity incubated for 5 days by Celltiter-Glo luminescent cell viability assay; format: functional, organism-based; conditions: Human mastadenovirus C, HEK293, 120 h
[5] = biological target: T1, Cathepsin K (Homo sapiens, UniProt P43235)
T1 sequence (P43235 whole entry): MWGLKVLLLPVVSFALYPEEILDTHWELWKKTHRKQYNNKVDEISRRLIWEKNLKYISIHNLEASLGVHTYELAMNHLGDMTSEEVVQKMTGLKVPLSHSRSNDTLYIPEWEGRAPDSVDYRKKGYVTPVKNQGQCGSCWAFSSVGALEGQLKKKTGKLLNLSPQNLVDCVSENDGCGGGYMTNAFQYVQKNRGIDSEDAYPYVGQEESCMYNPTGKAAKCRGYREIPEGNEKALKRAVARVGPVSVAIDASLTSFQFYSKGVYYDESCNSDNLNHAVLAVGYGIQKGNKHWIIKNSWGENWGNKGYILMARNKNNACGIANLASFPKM
Description: Inhibition of human recombinant Cathepsin K using fluorogenic peptide substrate

[6] = biological target: Dipeptidyl peptidase 1 (Homo sapiens, UniProt P53634)
Description: Inhibition of human recombinant Cathepsin C using fluorogenic peptide substrate

[7] = biological target: Cathepsin B (Homo sapiens, UniProt P07858)
Description: Inhibition of human recombinant Cathepsin B using fluorogenic peptide substrate

[8] = biological target: Cathepsin S (Homo sapiens, UniProt P25774)
Description: Inhibition of human recombinant Cathepsin S using fluorogenic peptide substrate

[9] = biological target: Procathepsin L (Homo sapiens, UniProt P07711)
Description: Inhibition of human recombinant Cathepsin L using fluorogenic peptide substrate

[10] = Equilibrium solubility of the compound at pH 6.8; format: physicochemical; conditions: buffer

Procathepsin L, sequence (P07711 whole entry): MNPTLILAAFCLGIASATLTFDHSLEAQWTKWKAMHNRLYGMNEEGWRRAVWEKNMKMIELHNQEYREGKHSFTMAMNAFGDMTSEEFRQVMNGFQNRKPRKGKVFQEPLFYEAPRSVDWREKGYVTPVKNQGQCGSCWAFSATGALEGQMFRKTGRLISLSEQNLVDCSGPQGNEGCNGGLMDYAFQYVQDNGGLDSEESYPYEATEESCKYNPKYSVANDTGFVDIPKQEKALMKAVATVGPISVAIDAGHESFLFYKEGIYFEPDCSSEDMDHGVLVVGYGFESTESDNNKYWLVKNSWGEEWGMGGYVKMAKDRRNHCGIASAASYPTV
Cathepsin S, sequence (P25774 whole entry): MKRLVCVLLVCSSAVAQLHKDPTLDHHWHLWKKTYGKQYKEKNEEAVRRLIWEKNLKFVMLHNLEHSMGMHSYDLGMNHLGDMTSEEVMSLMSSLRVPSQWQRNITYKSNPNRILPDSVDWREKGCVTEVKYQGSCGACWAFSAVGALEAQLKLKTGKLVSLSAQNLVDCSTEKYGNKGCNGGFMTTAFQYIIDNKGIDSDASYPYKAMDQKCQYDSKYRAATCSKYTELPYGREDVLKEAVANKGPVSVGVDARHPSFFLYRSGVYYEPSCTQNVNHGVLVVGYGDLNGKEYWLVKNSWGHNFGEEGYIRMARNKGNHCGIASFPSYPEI
Dipeptidyl peptidase 1, sequence (P53634 25-134 limits assumed): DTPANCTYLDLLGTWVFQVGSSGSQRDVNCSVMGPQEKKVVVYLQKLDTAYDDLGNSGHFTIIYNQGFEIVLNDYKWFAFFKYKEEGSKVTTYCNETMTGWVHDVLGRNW
Dipeptidyl peptidase 1, sequence (P53634 231-394 limits assumed): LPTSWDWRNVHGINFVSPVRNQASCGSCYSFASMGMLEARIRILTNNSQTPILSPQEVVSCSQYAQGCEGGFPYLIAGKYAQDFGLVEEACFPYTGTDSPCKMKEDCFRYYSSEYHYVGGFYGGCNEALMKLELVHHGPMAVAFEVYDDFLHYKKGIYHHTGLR
Dipeptidyl peptidase 1, sequence (P53634 395-463 limits assumed): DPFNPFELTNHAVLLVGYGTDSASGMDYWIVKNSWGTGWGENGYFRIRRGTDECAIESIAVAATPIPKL

IC50 [1] [µM]	IC50 [2] [µM]	logPm [3]	IC50 [5] [µM]	IC50 [6] [µM]	IC50 [7] [µM]	IC50 [8] [µM]	IC50 [9] [µM]	solubility thermodynamic [10] [µM]	SMILES	EC50 [4] [µM]
0.95	0.31								COc1ccc(C(=O)NCC(=O)NCC#N)cc1C(=O)C(C)c1cc(Cl)cc(Cl)c1 (configuration not stated)	
0.04	0.03	-5.6							CS(=O)(=O)N[C@H](C(=O)N[C@@H](Cc1ccccc1)C(=O)NCC(=O)NCC#N)c1cccc(Cl)c1	
< 0.001	< 0.001		73	> 100	> 100	> 100	> 100		CCN[C@H](C(=O)N[C@H](C(=O)NCC(=O)NC/C=C/S(C)(=O)=O)C(C)(C)C)c1cc(Cl)cc(Cl)c1	31
0.01	0.007	-5.5	> 100	> 100	> 100	> 100	100	> 1000	CN(C)CCOc1ccc(C(=O)NCC(=O)NCC#N)cc1C(=O)C(C)(C)c1cc(Cl)cc(Cl)c1	
0.001	0.001	-4.1	> 100	> 100	> 100	> 100	> 100		COc1ccc(C(=O)NCC(=O)NC/C=C/S(C)(=O)=O)cc1C(=O)C(C)(C)c1cc(Cl)cc(Cl)c1	
0.0001	0.0001	-4.2	19	18	81	24	> 11	490 (≈ 265 µg/mL)	CN(C)CCOc1ccc(C(=O)NCc2ccnc(C#N)n2)cc1C(=O)C(C)(C)c1cc(Cl)cc(Cl)c1	3.9
0.0006	0.0002		9.5	66	8.1	1	5.6		COc1ccc(C(=O)NCc2ccnc(C#N)n2)cc1C(=O)C(C)(C)c1cc(Cl)cc(Cl)c1	> 50
2.74	1.1								COc1ccc(C(=O)NCC(=O)NCC#N)cc1C(=O)Cc1cc(Cl)cc(Cl)c1	
0.004	0.002	-5.5	> 100	> 100	> 100	> 100	> 100		CC[C@H](C(=O)N[C@H]1CCN(CC(=O)NC/C=C/S(C)(=O)=O)C1=O)c1cc(Cl)cc(Cl)c1	8.9
0.01	0.01	-5.6	95	> 100	> 100	> 100	> 100		CC(C)(C)[C@H](NC(=O)Cc1cc(Cl)cc(Cl)c1)C(=O)NCC(=O)NC/C=C/S(C)(=O)=O	4.5
0.04	0.03	-5	> 100	> 100	> 100	> 100	> 100	50 (≈ 23.1 µg/mL)	COc1ccc(C(=O)NCC(=O)NCC#N)cc1C(=O)C(C)(C)c1cc(Cl)cc(Cl)c1	
